Measurements reported in patent US10125184B2, “Apolipoprotein E polypeptides and their use” (priority 2011, dated 2018).
Ends that are not written are not given here. Peptide text beside a SMILES is read from it.

Tests used:
HCVcc-luc = assay: Attachment versus post-attachment inhibition assay; assay type: cell-based, Hepatitis C virus; conditions: heparin 200 μg/ml, anti-CD81 5 μg/ml, hEP 20 μg/ml, bafilomycin A1 10 nM
Method: FIGS. 5A-5D. hEP inhibits HCV entry at the attachment step. (A) HCVcc-luc was first mixed with either scrambled peptide or hEP-2 (20 μg/ml) for one hour at room temperature. In Group 1, mixed virus was directly added to Huh7.5.1 cells, whereas in Group 2, virus was purified through ultracentrifuge at 28,000×g for 4 hours in order to remove peptide, and then used to infect Huh7.5.1 cells. **p<0.005. (B) The kinetics of hEP- and bafilomycin A1-mediated inhibition were determined by time-of-addition assays, as described in the examples section. Fitted lines represent sigmoidal time-dependent curves (mean of n=3; error bars, s.d.). (C) HCVcc-Luc was added to Huh7.5.1 cells at 4° C. and incubated for 1.5 hrs. Unbound virus was removed by 2 washes with cold media, fresh media was added, and the cells were shifted to 37° C. to allow synchronous infection to proceed. Heparin (200 μg/ml), anti-CD81 monoclonal antibody (5 μg/ml), hEP (20 μg/ml), or bafilomycin A1 (10 nM) were present in the media either continuously, during the 4° C. incubation only (attachment), or during the 37° C. incubation phase only (post-attachment). % Inhibition was calculated as 100-percent infection relative to control infections containing DMSO or an isotype antibody control containing 0.01% sodium azide (for anti-CD81 only) (mean of n=3; error bars, s.d.). (D) The effects of hEP (2.7 μM) or scrambled peptide on HCV binding were determined as described in the examples section. Results were calculated as relative RNA copies with numbers obtained from the scrambled peptide treated wells set to 100 (mean of n=3; error bars, s.d.). **p<0.005.
To investigate the mechanistic action of hEP, three sets of experiments were conducted. First, hEP-2 (SEQ ID NO: 9) or scrambled peptide-treated HCVcc were purified through ultracentrifugation to remove the peptide and then used to infect naïve Huh7.5.1 cells. […] Second, to determine the kinetics of inhibition, a time-of-addition experiment was conducted. HCV remained sensitive to bafilomycin A1, a fusion inhibitor that prevents endosome acidification, until 3 hours after the 37° C. temperature shift (FIG. 5B), which is consistent with previous reports (Koutsoudakis et al., J Virol 2006; 80:5308-5320). […] In order to determine whether hEP-2 (SEQ ID NO: 9) blocks infection at the initial attachment step or a downstream event in the HCV entry process, hEP-2 (SEQ ID NO: 9) was either added together with HCVcc to cells during the 4° C. attachment step only, and then removed prior to shifting the temperature to 37° C., or added only after the temperature shift. As a positive control, hEP-1 was present during the entire course of the experiment. […] Finally, the direct binding of virions to cell surface was measured using a real-time PCR based assay.

JFH-1 HCVcc-Luc = conditions: for IC50: HCVcc infection of Huh7.5.1 cells
Method: FIGS. 1A-1C. […] (A) Schematic illustration of apoE protein domains and the amino acid sequences of hEP and mEP peptides. The amino acid sequences shown are hEP-1 (SEQ ID NO: 6) and mEP (SEQ ID NO: 20). […] Huh7.5.1 cells were infected with JFH-1 HCVcc-Luc (MOI˜0.5) in the presence of hEP or mEP for 2 hours. After removal of virus and peptides, cells were further incubated for 48 hours prior to luciferase assay. Data are presented as % inhibition relative to control infections in which cells were treated with DMSO (0%). Results are expressed as mean±standard deviation (s.d.) (n=3). (C). Huh7.5.1 cells were treated with hEP or DMSO at indicated doses for 48 hours. The effect of hEP on cell viability was measured by a CellTiter Glo assay kit.
FIGS. 7A-7E. Mapping the anti-viral activity of hEP. In (A) and (B), HCVcc-luc was first mixed with indicated peptides (20 μg/ml, 2.7 μM) and then incubated with Huh7.5.1 cells for two hours at 37° C. to initiate infection. After additional 48 hours incubation, luciferase activity was measured. Results are presented as fold of inhibition relative to infections containing DMSO (n=5, mean±sd). (C) 20 μg of hEP-2 or hEP-2/ΔCys were resuspended in PBS and kept at room temperature for 30 minutes. Peptides were then mixed with 2×SDS-sample buffer without DTT and boiled for 5 minutes. Alternatively, samples were simply left unboiled or mixed with sample buffer containing DTT (2 mM). Peptide samples were then subjected to electrophoresis on a 16% tricine non-reducing gel (Invitrogen). […] (D) and (E) Mass spectrometric analysis of hEP-2 or hEP-2/ΔCys.
Detailed procedures involving the production and use of HCVpp and HCVcc have been published elsewhere (Liu et al., J Virol 2009; 83:2011-2014; Yang et al., Hepatology 2008; 48:1396-1403; Yang et al., J Biol Chem 2008; 283:8643-8653). Production procedure of HCVcc expressing firefly luciferase that was inserted between NS5A and NS5B (JFH-1 strain) was described elsewhere (Liu et al., Virology 2010; 407:160-170). Unless otherwise indicated, viruses were typically added to cells for two hours before removal. Cells were incubated for additional 48 hours followed by luciferase assay. When purification was needed, HCVcc were subjected to ultracentrifugation (SW41, 28,000×g) for 4 hours through a 20% sucrose cushion. Deidentified human sera, collected from five patients containing high-titer HCV (HCVser), were obtained.

[1] = DMPC binding assay (turbidity OD490nm); conditions: reduction (percentage) of turbidity (OD490nm) of DMPC solution, plateau 10 minutes after addition of peptide
Method: FIGS. 3A-3C. Both hEP and mEP mediate plasma cholesterol clearance through hepatic lipoprotein receptors. (A) DMPC binding assay was conducted as described in the examples section. The turbidity of DMPC vesicle solution was monitored by OD490 nm. The curves were representative of two independent experiments. (B) HEK293T cells were loaded with DiI-LDL (5 μg/ml) along with apoE peptide-DMPC particles which competed with DiI-LDL for LDLR binding and LDLR-mediated endocytosis (for 30 min) n=3 for each group. (C) Each peptide (100 μg in 100 μl PBS) was retro-orbitally injected into 6-month-old apoE−/− mice (two mice each group). PBS (100 μl) was injected into two other mice as control. Before (set as 0 min time point) and 5 min, 30 min, 1 h, 2 h, and 4 h after the peptide or PBS injection, 30 μl blood samples were drawn for plasma cholesterol measurement using total Cholesterol Reagent Kit (Raichem, San Diego, Calif.).
1,2-dimyristoyl-sn-glycero-3-phosphatidylcholine (DMPC) (Avanti Polar Lipids Inc., Alabaster, Ala.) was dissolved in chloroform: methanol (3:1, v/v). It was dried thoroughly under a stream of N2. The dried lipid sample was dispersed in pre-warmed buffer (10 mM Tris-HCl, pH7.2; 150 mM NaCl; 0.5 mM EDTA) to final lipid concentration of 10 mg/ml, vortexed for 1 min, and sonicated 10 times at lowest power for 10 seconds at 24° C. The peptide solution, lipid solution and buffer were all maintained at 23.9° C. One milliliter buffer and 250 μg (25 μl lipid solution) were added in a quartz cuvette, and let equilibrate for 10 min, resulting in a turbid DMPC vesicle solution. Peptide solution (250 μg in 100 μl) was then added to turbid solution in the cuvette, the solution was mixed immediately, and the change of turbidity was monitored by OD at 490 nm as a function of time. If the peptide binds to DMPC vesicles, the large DMPC vesicles will be transformed into smaller DMPC-peptide particles, reducing the turbidity of the solution.

| Compound | IC50 (JFH-1 HCVcc-Luc) | solubility (physchem) | further results |
| --- | --- | --- | --- |
| heparin [reference compound] |  |  | Inhibition when present during the 4° C. attachment step only (HCVcc-luc): predominant |
| CC(C)C[C@H](NC(=O)[C@H](CC(=O)O)NC(=O)[C@H](CC(=O)O)NC(=O)[C@H](C)NC(=O)[C@H](CC(=O)O)NC(=O)[C@H](CCCNC(=N)N)NC(=O)[C@H](CC(C)C)NC(=O)[C@H](CC(C)C)NC(=O)[C@H](CCCNC(=N)N)NC(=O)[C@H](CCCCN)NC(=O)[C@H](CCCNC(=N)N)NC(=O)[C@H](CC(C)C)NC(=O)[C@H](CCCCN)NC(=O)[C@H](CCCNC(=N)N)NC(=O)[C@H](CC(C)C)NC(=O)[C@H](Cc1c[nH]cn1)NC(=O)[C@H](CO)NC(=O)[C@H](C)NC(=O)[C@H](CC(C)C)NC(=O)[C@H](CCCNC(=N)N)NC(=O)[C@@H](NC(=O)[C@H](CCCNC(=N)N)NC(=O)[C@H](CC(C)C)NC(=O)[C@H](CCC(=O)O)NC(=O)[C@@H](N)CCC(=O)O)C(C)C)C(=O)O [hEP-8] | > 10 µM |  |  |
| CVDRYEARLRARALKDRQKRLLKELSLLVRHLD [Scrambled, reference compound] | > 10 µM | > 0.22 mg/mL |  |
| CC(C)C[C@H](NC(=O)[C@H](CC(=O)O)NC(=O)[C@H](CC(=O)O)NC(=O)[C@H](C)NC(=O)[C@H](CC(=O)O)NC(=O)[C@H](CCCNC(=N)N)NC(=O)[C@H](CC(C)C)NC(=O)[C@H](CC(C)C)NC(=O)[C@H](CCCNC(=N)N)NC(=O)[C@H](CCCCN)NC(=O)[C@H](CCCNC(=N)N)NC(=O)[C@H](CC(C)C)NC(=O)[C@H](CCCCN)NC(=O)[C@H](CCCNC(=N)N)NC(=O)[C@H](CC(C)C)NC(=O)[C@H](Cc1c[nH]cn1)NC(=O)[C@H](CO)NC(=O)[C@H](C)NC(=O)[C@H](CC(C)C)NC(=O)[C@H](CCCNC(=N)N)NC(=O)[C@@H](NC(=O)[C@H](CCCNC(=N)N)NC(=O)[C@H](CC(C)C)NC(=O)[C@@H](N)CS)C(C)C)C(=O)O [hEP-11] | 4 µM | < 0.22 mg/mL |  |
| CVRLASHLRKLRKRLLRDADDLQKRLAVY [hEP-10] | 0.8 µM | > 0.22 mg/mL |  |
| CC[C@H](C)[C@H](NC(=O)[C@@H](N)CS)C(=O)N[C@@H](CCCNC(=N)N)C(=O)N[C@@H](CC(C)C)C(=O)N[C@@H](CCC(N)=O)C(=O)N[C@@H](C)C(=O)N[C@@H](CCC(=O)O)C(=O)N[C@@H](C)C(=O)N[C@@H](Cc1ccccc1)C(=O)N[C@@H](CCC(N)=O)C(=O)N[C@@H](C)C(=O)N[C@@H](CCCNC(=N)N)C(=O)N[C@@H](CC(C)C)C(=O)N[C@@H](CCCCN)C(=O)N[C@@H](CO)C(=O)N[C@@H](Cc1c[nH]c2ccccc12)C(=O)N[C@@H](Cc1ccccc1)C(=O)N[C@@H](CCC(=O)O)C(=O)N1CCC[C@H]1C(=O)N[C@@H](CC(C)C)C(=O)N[C@H](C(=O)O)C(C)C [hEP-5] | > 10 µM |  |  |
| CC(C)C[C@H](NC(=O)[C@H](CC(C)C)NC(=O)[C@H](CCCNC(=N)N)NC(=O)[C@H](CCCCN)NC(=O)[C@H](CCCNC(=N)N)NC(=O)[C@H](CC(C)C)NC(=O)[C@H](CCCCN)NC(=O)[C@H](CCCNC(=N)N)NC(=O)[C@H](CC(C)C)NC(=O)[C@@H](N)CS)C(=O)N[C@@H](CCCNC(=N)N)C(=O)N[C@@H](CS)C(=O)O [hEP-12, CLRKLRKRLLRC] (H-CLRKLRKRLLRC-OH; N-terminus and C-terminus assumed) | > 10 µM | < 0.22 mg/mL |  |
| CVRLASHLRKLRKRLLRDADDL [hEP-4] | > 10 µM | < 0.22 mg/mL |  |
| EELRVRLASHLRKLRKRLLRDADDLQKRLAVY [hEP-2/ΔCys] | > 10 µM | > 0.22 mg/mL |  |
| VRLASHLRKLRKRLLRDADDLQKRLAVY [hEP-9] | > 10 µM |  |  |
| CEEIRARLSTHLRKMRKRLMRDADDLQKRLAVY [mEP-2] | > 10 µM | > 0.22 mg/mL |  |
| LRVRLASHLRKLRKRLLRDADDLQKRLAVY [hEP-7] | > 10 µM |  |  |
| CEELRVRLASHLRKLRKRLLRDADDLQKRLAVY [hEP-2] | 0.5 µM | > 0.22 mg/mL |  |
| VRLASHLRKLRKRLLRDADDLIRLQAEAFQARLKSWFEPLV [hEP-6] | > 10 µM |  |  |
| CEEQAQQIRLQAEAFQARLKSWFEPLVEDM [hEP-3] |  | < 0.22 mg/mL | DMPC binding [1]: + (+, reduction 25-50%); Inhibition of HCVcc infection/entry (in words) (JFH-1 HCVcc-Luc; Huh7.5.1 cells): dramatically reduced ability to inhibit HCVcc entry |
